Results reported in ChEMBL document CHEMBL1201862, “PubChem BioAssay data set” (2004).
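Dose response: 5 concentrations. Exposure: 48 h. Format: 96-well plates. Endpoint: linear interpolation; highest concentration if not reached. Abbreviation: GI50, concentration required for 50% inhibition of growth.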 Calls of active or inactive are those of the source. Cut-off read from the data, not from the text of the source: active = GI50 up to about 1.1 µM and inactive = higher.

How the values were obtained:
Experiment in all cases: NCI tumour cell line growth inhibition, 48 h
A549 = system: A549
BT-549 = system: BT-549
CAKI-1 = system: CAKI-1
COLO 205 = system: COLO 205
HCC 2998 = system: HCC 2998
HCT-116 = system: HCT-116
Hs-578T = system: Hs-578T
KM12 = system: KM12
MDA-MB-231 = system: MDA-MB-231
MDA-N = system: MDA-N
MOLT-4 = system: MOLT-4
NCI-H23 = system: NCI-H23
NCI-H522 = system: NCI-H522
OVCAR-3 = system: OVCAR-3
OVCAR-4 = system: OVCAR-4
SK-MEL-5 = system: SK-MEL-5
SK-OV-3 = system: SK-OV-3
SNB-19 = system: SNB-19
U-251 = system: U-251
UACC-62 = system: UACC-62

SMILES | GI50 (A549) | GI50 (BT-549) | GI50 (CAKI-1) | GI50 (COLO 205) | GI50 (HCC 2998) | GI50 (HCT-116) | GI50 (Hs-578T) | GI50 (KM12) | GI50 (MDA-MB-231) | GI50 (MDA-N) | GI50 (MOLT-4) | GI50 (NCI-H23) | GI50 (NCI-H522) | GI50 (OVCAR-3) | GI50 (OVCAR-4) | GI50 (SK-MEL-5) | GI50 (SK-OV-3) | GI50 (SNB-19) | GI50 (U-251) | GI50 (UACC-62)
O=C(c1nc2ccc([N+](=O)[O-])cc2nc1O)C(O)c1ccc2c(c1)OCO2 (stereo not given) | > 100 µM (inactive) | > 100 µM (inactive) | > 96.2 µM (inactive) | > 96.4 µM (inactive) | > 100 µM (inactive) | 52.7 µM (inactive) | > 100 µM (inactive) | > 51.2 µM (inactive) | > 100 µM (inactive) | 70.8 µM (inactive) | > 100 µM (inactive) | > 100 µM (inactive) | 14.8 µM (inactive) | > 50.7 µM (inactive) | > 100 µM (inactive) | 45.7 µM (inactive) | > 100 µM (inactive) | > 100 µM (inactive) | > 100 µM (inactive) | 96.4 µM (inactive)
O=C1C=CC(=O)c2c1cc1ccccc1c2O | 16.7 µM (inactive) | 9.38 µM (inactive) | 4.21 µM (inactive) | 2.4 µM (inactive) | 17.7 µM (inactive) | 1.85 µM (inactive) | 8.22 µM (inactive) | 13.2 µM (inactive) | 2.04 µM (inactive) | 5.26 µM (inactive) | 0.387 µM (active) | 13 µM (inactive) | 1.9 µM (inactive) | 2.12 µM (inactive) | 2.33 µM (inactive) | 12.1 µM (inactive) | 18.4 µM (inactive) | 19.3 µM (inactive) | 14 µM (inactive) | 6.32 µM (inactive)
COc1ccc(/C=C2\NC(=S)N(/C=C3\C(=O)Oc4ccccc4C3=O)C2=O)cc1OC | > 100 µM (inactive) | > 100 µM (inactive) | > 100 µM (inactive) | > 100 µM (inactive) | > 100 µM (inactive) | > 100 µM (inactive) | 87.5 µM (inactive) | 90.2 µM (inactive) | > 100 µM (inactive) | > 100 µM (inactive) | > 100 µM (inactive) | > 100 µM (inactive) | 22.6 µM (inactive) | 87.3 µM (inactive) | > 100 µM (inactive) | > 100 µM (inactive) | > 100 µM (inactive) | > 100 µM (inactive) | > 100 µM (inactive) | > 100 µM (inactive)
O=P(O)(O)CC1OC(CO)C(O)C1O (stereo not given) | > 100 µM (inactive) | > 100 µM (inactive) | > 100 µM (inactive) | > 100 µM (inactive) | > 100 µM (inactive) | > 100 µM (inactive) | > 100 µM (inactive) | > 100 µM (inactive) | > 100 µM (inactive) | > 100 µM (inactive) | > 100 µM (inactive) | > 100 µM (inactive) | > 100 µM (inactive) | > 100 µM (inactive) | > 100 µM (inactive) | > 100 µM (inactive) | > 100 µM (inactive) | > 100 µM (inactive) | > 100 µM (inactive) | > 100 µM (inactive)
Cc1ccc(/C=N/Nc2ccccn2)s1 | > 100 µM (inactive) | 81.3 µM (inactive) | > 100 µM (inactive) | > 100 µM (inactive) | > 100 µM (inactive) | > 44.7 µM (inactive) | > 100 µM (inactive) | > 100 µM (inactive) | > 41.1 µM (inactive) | > 54 µM (inactive) | > 100 µM (inactive) | > 100 µM (inactive) | 12.5 µM (inactive) | > 55.7 µM (inactive) | > 100 µM (inactive) | > 100 µM (inactive) | > 100 µM (inactive) | > 100 µM (inactive) | > 100 µM (inactive) | > 100 µM (inactive)
O=C1CCCCC/C1=C\c1cccc(Cl)c1 | 63.2 µM (inactive) | 43.2 µM (inactive) | 72.6 µM (inactive) | 35.3 µM (inactive) | 41.7 µM (inactive) | 40.2 µM (inactive) | 35.9 µM (inactive) | 30.8 µM (inactive) | > 100 µM (inactive) | 45.4 µM (inactive) | 27.4 µM (inactive) | 42.9 µM (inactive) | 39.2 µM (inactive) | 71.3 µM (inactive) | 26.5 µM (inactive) | 25.4 µM (inactive) | > 100 µM (inactive) | > 100 µM (inactive) | 47.2 µM (inactive) | 45.9 µM (inactive)
OCCNCCN1CCN(CCCN2c3ccccc3Sc3ccc(C(F)(F)F)cc32)CC1 | 24 µM (inactive) | 85.9 µM (inactive) | 76.2 µM (inactive) | 18.2 µM (inactive) | 27.4 µM (inactive) | 17.9 µM (inactive) | 47.3 µM (inactive) | 27.2 µM (inactive) | 20.9 µM (inactive) | 19 µM (inactive) | > 100 µM (inactive) | 27.2 µM (inactive) | 19.2 µM (inactive) | 22.7 µM (inactive) | 25.8 µM (inactive) | > 100 µM (inactive) | 33.6 µM (inactive) | 24.7 µM (inactive) | 20.3 µM (inactive) | 22.3 µM (inactive)
COC(=O)C1=C(C)NC(C)=C([N+](=O)[O-])C1c1cccc(NO)c1 (stereo not given) | 3.86 µM (inactive) | 4.51 µM (inactive) | 8.38 µM (inactive) | 2.06 µM (inactive) | 4.53 µM (inactive) | 2.37 µM (inactive) | 2.84 µM (inactive) | 2.54 µM (inactive) | 3.64 µM (inactive) | 1.79 µM (inactive) | 3.46 µM (inactive) | 4.94 µM (inactive) | 3.67 µM (inactive) | 3.9 µM (inactive) | 6.04 µM (inactive) | 2.72 µM (inactive) | 7.38 µM (inactive) | 6.65 µM (inactive) | 5.22 µM (inactive) | 6.55 µM (inactive)
COc1nc(C(Cl)(Cl)Cl)c(Cl)c(OC)c1Cl [PENCLOMEDINE] | 40.5 µM (inactive) | 38 µM (inactive) | 40.3 µM (inactive) | 44.1 µM (inactive) | 46.1 µM (inactive) | 41.9 µM (inactive) | 33.3 µM (inactive) | 33.7 µM (inactive) | 38.3 µM (inactive) | 26.9 µM (inactive) | 19.4 µM (inactive) | 42.2 µM (inactive) | 33.1 µM (inactive) | 38.8 µM (inactive) | 25.7 µM (inactive) | 22.5 µM (inactive) | 16.2 µM (inactive) | 27.3 µM (inactive) | 36.1 µM (inactive) | 22.4 µM (inactive)
Nc1nc(SCc2ccccc2[N+](=O)[O-])c2[nH]cnc2n1 | > 76.6 µM (inactive) | 26.2 µM (inactive) | 38.7 µM (inactive) | > 45 µM (inactive) | > 41.5 µM (inactive) | > 60.1 µM (inactive) | 1.93 µM (inactive) | > 57.7 µM (inactive) | 39.4 µM (inactive) | 27.9 µM (inactive) | > 100 µM (inactive) | > 58.1 µM (inactive) | > 31.8 µM (inactive) | > 70.8 µM (inactive) | 62.2 µM (inactive) | 18.9 µM (inactive) | > 71 µM (inactive) | > 83.2 µM (inactive) | > 61.9 µM (inactive) | 37.3 µM (inactive)
